Measurements: patent publication US4499094A, “Derivatives of arene and hetero-arene carboxamides and their use as medicaments” (Pharmuka Laboratoires, priority 1982, dated 1985)

Biological target: T1, "peripheral" receptor sites of benzodiazepines (Rattus norvegicus, UniProt P16257)
T1 construct: on kidney membranes from the rat; from tissue; host or cells: rat kidney membranes
Assay: Affinity for "peripheral" receptor sites of benzodiazepines: displacement of tritiated diazepam on kidney membranes from the rat
Assay type: binding
Details: not given
Excerpt: The products have been studied according to the method of C. BRAESTRUP et al, Proc. Natl. Acad. Sci. USA, 1977, 74, 3805, on kidney membranes from the rat.

Row | Structure (SMILES) | Ki [nM]
1 | CCC(C)N(C)C(=O)c1cc2ccccc2c(-c2ccccc2)n1 (stereo not shown) [Example 10, N-methyl N(1-methylpropyl) 1-phenyl isoquinoline 3-carboxamide] | 2

Same assay, conditions: read-out: Ki

Row | Structure (SMILES) | Ki [nM]
2 | CCN(CC)C(=O)c1cc(-c2ccccc2)c2ccccc2c1 [Example 1, N,N-diethyl 4-phenyl naphthalene 2-carboxamide] | 5.4
3 | CCN(CC)C(=O)c1cc(-c2ccccc2)c2ccccc2n1 [Example 3, N,N-diethyl 4-phenyl quinoline 2-carboxamide] | 27
4 | CCN(CC)C(=O)c1cc2ccccc2c(-c2ccccc2)n1 [Example 5, N,N-diethyl 1-phenyl isoquinoline 3-carboxamide] | 150
5 | CCN(CC)C(=O)c1cc2ccccc2c(-c2ccccc2Cl)n1 [Example 6, N,N-diethyl 1-(2-chloro-phenyl) isoquinoline 3-carboxamide] | 17
6 | O=C(c1cc2ccccc2c(-c2ccccc2)n1)N1CCCCC1 [Example 7, 1-[3-(1-phenylisoquinolyl)carbonyl]piperidine] | 210
7 | CCN(CC)C(=O)c1cc2ccccc2c(-c2cccc(Cl)c2)n1 [Example 11, N,N-diethyl 1-(3-chlorophenyl) isoquinoline 3-carboxamide] | 9
8 | CCN(CC)C(=O)c1cc2ccccc2c(-c2ccc(C)cc2)n1 [Example 12, N,N-diethyl 1-(4-methylphenyl) isoquinoline 3-carboxamide] | 99
9 | O=C(c1cc2ccccc2c(-c2ccccc2Cl)n1)N1CCCCC1 [Example 13, 1-[[1-(2-chlorophenyl) 3-isoquinolyl]carbonyl]piperidine] | 72
10 | CCCN(CCC)C(=O)c1cc2ccccc2c(-c2ccccc2Cl)n1 [Example 14, N,N-dipropyl 1-(2-chlorophenyl) isoquinoline 3-carboxamide] | 18
11 | CCN(CC)C(=O)c1cc2ccccc2c(-c2cccc(F)c2)n1 [Example 15, N,N-diethyl 1-(3-fluorophenyl) isoquinoline 3-carboxamide] | 20
12 | CCC(C)N(C)C(=O)c1cc2ccccc2c(-c2ccccc2F)n1 (stereo not shown) [Example 16, N-methyl N-(1-methylpropyl) 1-(2-fluorophenyl) isoquinoline 3-carboxamide] | 0.9
13 | CN(Cc1ccccc1)C(=O)c1cc2ccccc2c(-c2ccccc2Cl)n1 [Example 17, N-methyl N-phenylmethyl 1-(2-chlorophenyl) isoquinoline 3-carboxamide] | 117
14 | CC(C)N(C(=O)c1cc2ccccc2c(-c2ccccc2Cl)n1)C(C)C [Example 24, N,N-di(1-methylethyl) 1-(2-chlorophenyl) isoquinoline 3-carboxamide] | 20
15 | C=CC(C)N(C)C(=O)c1cc2ccccc2c(-c2ccccc2Cl)n1 (stereo not shown) [Example 25, N-methyl N(1-methylpropene-2-yl) 1-(2-chlorophenyl) isoquinoline 3-carboxamide] | 3
16 | CCN(CC)C(=O)c1cc2sccc2c(-c2ccccc2Cl)n1 [Example 31, N,N-diethyl 4-(2-chlorophenyl) thieno[3,2-c]pyridine 6-carboxamide] | 9
17 | CCN(CC)C(=O)c1cc2ccsc2c(-c2ccccc2Cl)n1 [Example 32, N,N-diethyl 7-(2-chlorophenyl) thieno[2,3-c]pyridine 5-carboxamide] | 6.3
18 | CCN(CC)C(=O)c1nc(-c2ccccc2)c2ccccc2n1 [Example 33, N,N-diethyl 4-phenyl quinazoline 2-carboxamide] | 27
19 | CCC(C)N(C)C(=O)c1cc(-c2ccccc2F)c2ccccc2n1 (stereo not shown) [Example 35, N-methyl N(1-methylpropyl) 4-(2-fluorophenyl) quinoline 2-carboxamide] | 2
20 | CCN(CC)C(=O)c1cc(-c2cccc([N+](=O)[O-])c2)c2ccccc2n1 [Example 38, N,N-diethyl 4-(3-nitrophenyl) quinoline 2-carboxamide] | 30
21 | CCCCN(CCCC)C(=O)c1cc2ccccc2c(-c2ccccc2)n1 [Example 39, N,N-dibutyl 1-phenyl isoquinoline 3-carboxamide] | 21
22 | CCC1CCCCN1C(=O)c1cc2ccccc2c(-c2ccccc2)n1 (stereo not shown) [Example 40, 2-ethyl 1-[(1-phenyl 3-isoquinolyl)carbonyl]piperidine] | 16
23 | CC[C@@H]1CCCCN1C(=O)c1cc2ccccc2c(-c2ccccc2)n1 [Example 41, 2(R)-ethyl 1-[(1-phenyl 3-isoquinolyl)carbonyl]piperidine] | 22
24 | CC[C@H]1CCCCN1C(=O)c1cc2ccccc2c(-c2ccccc2)n1 [Example 42, 2(S)-ethyl 1-[(1-phenyl 3-isoquinolyl)carbonyl]piperidine] | 13
25 | CCN(CC)C(=O)c1cc2ccccc2c(-c2cccc(C(F)(F)F)c2)n1 [Example 43, N,N-diethyl 1-(3-trifluoromethylphenyl) isoquinoline 3-carboxamide] | 13
26 | CCC(C)N(C)C(=O)c1cc2ccsc2c(-c2ccccc2Cl)n1 (stereo not shown) [Example 46, N-methyl N-(1-methylpropyl) 7-(2-chlorophenyl) thieno[2,3-c]pyridine 5-carboxamide] | 7
27 | CCC(C)N(C)C(=O)c1cc2sccc2c(-c2ccccc2Cl)n1 (stereo not shown) [Example 47, N-methyl N-(1-methylpropyl) 4-(2-chlorophenyl) thieno[3,2-c]pyridine 6-carboxamide] | 1

System: binding sites of (^3 H) diazepam in the brain
Assay: not given
Details: brain, in words; cited from earlier work

Row | Structure (SMILES) | affinity for the binding sites of (^3 H) diazepam in the brain (central level)
28 | CN1C(=O)CN=C(c2ccc(Cl)cc2)c2cc(Cl)ccc21 [Ro-5-4864] | inactive at the central level

Same assay, conditions: rank order; cited from earlier work

Row | Structure (SMILES) | classification by decreasing affinity, "cerebral" type
29 | CN1C(=O)CN=C(c2ccc(Cl)cc2)c2cc(Cl)ccc21 [Ro-5-4864] | clonazepan>diazepam>Ro-5-4864

System: binding sites of (^3 H) diazepam in the kidney
Assay: not given
Details: kidney / peripheral level, in words; cited from earlier work

Row | Structure (SMILES) | activity at the binding sites of (^3 H) diazepam in the kidney (peripheral level)
30 | CN1C(=O)CN=C(c2ccc(Cl)cc2)c2cc(Cl)ccc21 [Ro-5-4864] | very active at the peripheral level
31 | O=C1CN=C(c2ccccc2Cl)c2cc([N+](=O)[O-])ccc2N1 [clonazepam] | practically inactive

Same assay, conditions: rank order; cited from earlier work

Row | Structure (SMILES) | classification by decreasing affinity, "peripheral" type
32 | CN1C(=O)CN=C(c2ccc(Cl)cc2)c2cc(Cl)ccc21 [Ro-5-4864] | Ro-5-4864>diazepam>clonazepam
33 | O=C1CN=C(c2ccccc2Cl)c2cc([N+](=O)[O-])ccc2N1 [clonazepam] | Ro-5-4864>diazepam>clonazepam
34 | CN1C(=O)CN=C(c2ccccc2)c2cc(Cl)ccc21 [diazepam] | Ro-5-4864>diazepam>clonazepam
